Measured values from US12275684B2, “Methods for making and using endoxifen” (Atossa Therapeutics, Inc., priority 2017, dated 2025).
“And” between values parts separate entries of the source, which are not always exact repeats. Equal values may be shown once. Read-outs that look alike come from different tables or passages of the source.

Assay: Placebo controlled, dose escalation pharmacokinetic study of oral (Z)-Endoxifen capsules (serum endoxifen; incl. accumulation ratios and dose linearity)
Type: in vivo, human
Conditions: for AUC(0-inf) / AUC(0-t) / Cmax / Tmax / Vd/F / concentration at 72 h / concentration at 120 h / concentration at 0.5 h / concentration at 1 h / concentration at 2 h / concentration at 3 h / concentration at 4 h / concentration at 5 h / concentration at 8 h / concentration at 10 h / concentration at 12 h / concentration at 24 h: female, human, serum, oral; for concentration at 72 h: Day 4 Hr 72; for concentration at 120 h: Day 6 Hr 120; for concentration at 0.5 h: Day 1 hr 0.5; for concentration at 1 h: Day 1 hr 1; for concentration at 2 h: Day 1 hr 2; for concentration at 3 h: Day 1 hr 3; for concentration at 4 h: Day 1 hr 4; for concentration at 5 h: Day 1 hr 5; for concentration at 8 h: Day 1 hr 8; for concentration at 10 h: Day 1 hr 10; for concentration at 12 h: Day 1 hr 12; for concentration at 24 h: Day 1 hr 24
Excerpt: An objective of the study was to assess the safety and tolerability of oral (Z)-Endoxifen when administered […] orally as a capsule to healthy female volunteers. A secondary objective was to assess the pharmacokinetics of multiple doses of oral (Z)-Endoxifen in the subjects.
Generally, healthy female volunteers aged ≥18 years and ≤65 years were enrolled. 24 participants were enrolled in 3 cohorts and will be administered study drug orally. Three dose levels of orally administered (Z)-Endoxifen were investigated in 3 cohorts. In each cohort participants were randomized to receive an oral (Z)-Endoxifen or placebo in a blinded fashion. Enteric-resistant capsules used in the study were designed as delayed release capsules to resist rupture for at least 30 minutes, but typically, for about 2 hours, under gastric conditions and then open fully in intestinal fluid (DRCaps; Capsugel, a Lonza Company, USA). Enteric-resistant (Swedish Orange size Zero (0); Capsugel, USA) DRCaps capsules manually filled with 1, 2 or 4 mg of (Z)-endoxifen neat in compliance with GMP requirements were used. Placebo capsules contained microcrystalline cellulose an inert common capsule and tablet excipient.
Each cohort enrolled 8 participants, with 6 participants receiving (Z)-Endoxifen 1 mg capsules orally at 1 mg (Cohort 1), 2 mg (Cohort 2) or 4 mg (Cohort 3) doses and 2 participants receiving matching placebo capsules. In Cohort 1 (Dose Level=1 mg) two participants (sentinels) were dosed 24 hours prior to the remaining participants. One sentinel was dosed with (Z)-Endoxifen and the other with placebo. The remaining six participants in Cohort 1 were dosed as no safety concerns were identified in the sentinel participants. The non-sentinel participants in Cohort 1 were admitted to the clinical research facility at least one day later than the sentinels. There were no sentinels in Cohorts 2 and 3.
Participant engagement in this study was for a period of 56 days. These included a 28 day screening period, and a 7 day post treatment period for Pharmacokinetic (PK) sampling. There were two confinement periods, one at the beginning and one at the end of the dosing periods. Participants were confined to the clinical facility on Days-1 through to Day 2 and Days 21 and 22. If participants were to experience any clinically significant adverse events during the study, they would have been required to remain in the clinical facility for further observation at the discretion of the Principal Investigator (PI).
Healthy female volunteers were screened within 28 days prior to commencement of dosing. Participants were admitted to the clinical facility on Day-1 for up to 3 days. The first dose of (Z)-Endoxifen or placebo capsules was administered on Day 1. Following completion of all safety assessments and sampling for PK analyses, participants were discharged from the clinical facility on Day 2. The first dose on Day 1 was followed by a 6-day treatment free period (Days 2-7). Each participant returned to the clinical facility for PK blood draws and safety assessments during the treatment free period on study Days 4 and 6. On Day 8 participants commenced daily administration of (Z)-Endoxifen capsules or placebo capsules for 14 consecutive days (Days 8-21). Participants were supplied with study drug capsules and asked to self administer daily. Participants visited the clinical facility on Days 11, 14 and 17, prior to dose administration, for PK blood draws and safety assessments. On the morning of Day 21 each participant returned to the clinical facility prior to dose administration and were confined to the facility until Day 22 to allow for the collection of PK blood draws and safety assessments. The Day 21 dose was the last administration of study drug. Participants were discharged from the clinical facility on Day 22 and returned for PK blood draws and safety assessments on study Days 24, 26, and 28. […]

[1] = 1 mg, read-out: Serum concentration, GeoMean
[2] = 1 mg, read-out: Serum concentration, Max
[3] = 1 mg, read-out: Serum concentration, Mean
[4] = 1 mg, read-out: Serum concentration, Median
[5] = 1 mg, read-out: Serum concentration, Min

Time to maximum serum endoxifen levels (FIG. 3 and FIG. 4): about 10 hours
Mean Ratio AUC24 hr(Day 21)/AUC0-inf(Day 1) (dose 1 mg (n = 5)): 0.81 (SD 0.20)
Mean Ratio AUC24 hr(Day 21)/AUC24 hr(Day 1) (dose 1 mg (n = 5)): 3.09 (SD 1.49)
Mean Ratio Cmax(Day 21)/Cmax(Day 1) (dose 1 mg (n = 5)): 2.74 (SD 1.29)
Mean Ratio AUC24 hr(Day 21)/AUC0-inf(Day 1) (dose 2 mg (n = 6)): 0.85 (SD 0.20)
Mean Ratio AUC24 hr(Day 21)/AUC24 hr(Day 1) (dose 2 mg (n = 6)): 3.04 (SD 0.79)
Mean Ratio Cmax(Day 21)/Cmax(Day 1) (dose 2 mg (n = 6)): 2.92 (SD 0.88)
Mean Ratio AUC24 hr(Day 21)/AUC0-inf(Day 1) (dose 4 mg (n = 6)): 1.08 (SD 0.38)
Mean Ratio AUC24 hr(Day 21)/AUC24 hr(Day 1) (dose 4 mg (n = 6)): 3.47 (SD 1.08)
Mean Ratio Cmax(Day 21)/Cmax(Day 1) (dose 4 mg (n = 6)): 3.56 (SD 1.01)
AUC(0-inf) (1 mg, Day 1, 1 mg, N = 5, read-out: AUC0-inf, GeoMean): 559 ng·h/mL
AUC(0-inf) (1 mg, Day 1, 1 mg, N = 5, read-out: AUC0-inf, Mean): 567 ng·h/mL
AUC(0-inf) (1 mg, Day 1, 1 mg, N = 5, read-out: AUC0-inf, Median): 534 ng·h/mL
AUC(0-t) (1 mg, Day 1, 1 mg, N = 5, read-out: AUC24hr, GeoMean): 155 ng·h/mL
AUC(0-t) (1 mg, Day 1, 1 mg, N = 5, read-out: AUC24hr, Mean): 158 ng·h/mL
AUC(0-t) (1 mg, Day 1, 1 mg, N = 5, read-out: AUC24hr, Median): 171 ng·h/mL
AUC(0-t) (1 mg, Day 1, 1 mg, N = 5, read-out: AUCTlast, GeoMean): 466 ng·h/mL
AUC(0-t) (1 mg, Day 1, 1 mg, N = 5, read-out: AUCTlast, Mean): 471 ng·h/mL
AUC(0-t) (1 mg, Day 1, 1 mg, N = 5, read-out: AUCTlast, Median): 472 ng·h/mL
Cmax (1 mg, Day 1, 1 mg, N = 5, read-out: Cmax, GeoMean): 9.5 ng/mL
Cmax (1 mg, Day 1, 1 mg, N = 5, read-out: Cmax, Mean): 9.6 ng/mL
Cmax (1 mg, Day 1, 1 mg, N = 5, read-out: Cmax, Median): 10 ng/mL
Tmax (1 mg, Day 1, 1 mg, N = 5, read-out: Tmax, GeoMean): 5.11 h
Tmax (1 mg, Day 1, 1 mg, N = 5, read-out: Tmax, Mean): 5.62 h
Tmax (1 mg, Day 1, 1 mg, N = 5, read-out: Tmax, Median): 6 h
Vd/F (1 mg, Day 1, 1 mg, N = 5, read-out: Vz/F, GeoMean): 118 L
Vd/F (1 mg, Day 1, 1 mg, N = 5, read-out: Vz/F, Mean): 120 L
Vd/F (1 mg, Day 1, 1 mg, N = 5, read-out: Vz/F, Median): 108 L
AUC(0-t) (1 mg, Day 21, 1 mg, N = 5, read-out: AUC24hr, GeoMean): 431 ng·h/mL
AUC(0-t) (1 mg, Day 21, 1 mg, N = 5, read-out: AUC24hr, Mean): 458 ng·h/mL
AUC(0-t) (1 mg, Day 21, 1 mg, N = 5, read-out: AUC24hr, Median): 527 ng·h/mL
Cmax (1 mg, Day 21, 1 mg, N = 5, read-out: Cmax, GeoMean): 23.3 ng/mL
Cmax (1 mg, Day 21, 1 mg, N = 5, read-out: Cmax, Mean): 24.6 ng/mL
Cmax (1 mg, Day 21, 1 mg, N = 5, read-out: Cmax, Median): 29 ng/mL
Tmax (1 mg, Day 21, 1 mg, N = 5, read-out: Tmax, GeoMean): 6.64 h
Tmax (1 mg, Day 21, 1 mg, N = 5, read-out: Tmax, Mean): 6.88 h
Tmax (1 mg, Day 21, 1 mg, N = 5, read-out: Tmax, Median): 8 h
Vd/F (1 mg, Day 21, 1 mg, N = 5, read-out: Vz/F, GeoMean): 173 L
Vd/F (1 mg, Day 21, 1 mg, N = 5, read-out: Vz/F, Mean): 181 L
Vd/F (1 mg, Day 21, 1 mg, N = 5, read-out: Vz/F, Median): 170 L
concentration at 72 h [1]: 7.84 nM
concentration at 72 h [2]: 10.7 nM
concentration at 72 h [3]: 8.03 nM
concentration at 72 h [4]: 8.03 nM
concentration at 72 h [5]: 5.35 nM
concentration at 120 h [1]: 3.53 nM
concentration at 120 h [2]: 5.35 nM
concentration at 120 h [3]: 3.75 nM
concentration at 120 h [4]: 2.68 nM
concentration at 120 h [5]: 2.68 nM
concentration at 0.5 h [1]: 3.18 nM
concentration at 0.5 h [2]: 5.35 nM
concentration at 0.5 h [3]: 2.68 nM
concentration at 0.5 h [4]: 2.68 nM
concentration at 0.5 h [5]: 0 nM
concentration at 1 h [1]: 3.33 nM
concentration at 1 h [2]: 8.03 nM
concentration at 1 h [3]: 3.75 nM
concentration at 1 h [4]: 2.68 nM
concentration at 1 h [5]: 2.68 nM
concentration at 2 h [1]: 17 nM
concentration at 2 h [2]: 18.7 nM
concentration at 2 h [3]: 17.1 nM
concentration at 2 h [4]: 18.7 nM
concentration at 2 h [5]: 13.4 nM
concentration at 3 h [1]: 17.1 nM
concentration at 3 h [2]: 18.7 nM
concentration at 3 h [3]: 17.1 nM
concentration at 3 h [4]: 16.1 nM
concentration at 3 h [5]: 16.1 nM
concentration at 4 h [1]: 20.1 nM
concentration at 4 h [2]: 26.8 nM
concentration at 4 h [3]: 20.3 nM
concentration at 4 h [4]: 18.7 nM
concentration at 4 h [5]: 18.7 nM
concentration at 5 h [1]: 23.2 nM
concentration at 5 h [2]: 26.8 nM
concentration at 5 h [3]: 23.6 nM
concentration at 5 h [4]: 24.1 nM
concentration at 5 h [5]: 16.1 nM
concentration at 8 h [1]: 21.1 nM
concentration at 8 h [2]: 32.1 nM
concentration at 8 h [3]: 22 nM
concentration at 8 h [4]: 21.4 nM
concentration at 8 h [5]: 13.4 nM
concentration at 10 h [1]: 21.6 nM
concentration at 10 h [2]: 32.1 nM
concentration at 10 h [3]: 22.5 nM
concentration at 10 h [4]: 21.4 nM
concentration at 10 h [5]: 13.4 nM
concentration at 12 h [1]: 17.1 nM
concentration at 12 h [2]: 21.4 nM
concentration at 12 h [3]: 18.2 nM
concentration at 12 h [4]: 21.4 nM
concentration at 12 h [5]: 8.03 nM
concentration at 24 h [1]: 14.7 nM
concentration at 24 h [2]: 18.7 nM
concentration at 24 h [3]: 15 nM
concentration at 24 h [4]: 16.1 nM
concentration at 24 h [5]: 10.7 nM
AUC(0-inf) (2 mg, Day 1, 2 mg, N 6, read-out: AUC0-inf, GeoMean): 1080 ng·h/mL
Structure (SMILES): CC/C(=C(\c1ccc(O)cc1)c1ccc(OCCNC)cc1)c1ccccc1 [(Z)-Endoxifen, (Z)-4-(1-(4-(2-(methylamino)ethoxy)phenyl)-2-phenylbut-1-enyl) phenol]
AUC(0-inf), individual subjects (Dose: 2 mg oral, Day 1): 1188 ng·h/mL and 755 ng·h/mL and 954 ng·h/mL and 1242 ng·h/mL and 1489 ng·h/mL
AUC(0-inf), individual subjects (Dose: 4 mg oral, Day 1): 1098 ng·h/mL and 1642 ng·h/mL and 736 ng·h/mL and 1883 ng·h/mL and 2116 ng·h/mL and 4624 ng·h/mL
dose response of Cmax and AUC24hr (across the three dose levels, once daily oral): dose-proportionality (linear dose response)
